Experimental data from patent US11220509B2, “Substituted imidazo[1,2-c]pyrimidines as PRC2 inhibitors” (Mirati Therapeutics, Inc., priority 2018, dated 2022).
Where two headings read alike, the source gives them in different places.

Tests used:
[1] = tested on: Karpas 422 cells expressing mutant EZH2 (Y641N); assay: Karpas 422 cell viability, CTG (Cell Titre Glo) assay; format: cell-based, human; conditions: Day 4, 7 or 11 measured, time point of the table not stated, read-out: IC50 (nM), Inhibiting Proliferation of Cells Expressing an Activating Mutant Form of EZH2
Procedure: Karpas 422 cell line is a human B cell non-Hodgkin's lymphoma cell line established from a patient having DLBCL. This EZH2 heterozygotic cell line expresses a mutant form of EZH2 enzyme (Y641N) that increases histone H3 methylation and this mutation has been implicated in the tumorgenesis of lymphomas, such as DLBCL.
Karpas 422 cells (PHE cat no., 06101702) were cultured in RPMI medium supplemented with 20% fetal bovine serum and 1% penicillin/l % streptomycin and plated at a density of 1000 cells/90 μl/well in 96 well white assay plates. A dose response curve for compounds of the present invention was determined by adding a 10 μl aliquot of stock solutions of varying concentrations of compounds to the same medium in each well, over a concentration range of 10 μM using 3-fold dilutions to a final concentration of 1.5 nM. The plates were incubated at 37° C. for predetermined time periods, Day 4, Day 7, or Day 11, and the viability of the cells was measured using a CTG assay kit (Cell Titre Glo; Promega cat. no G7573) on Day 4 and Day 7 in accordance with the manufacturer's instructions.
For the viability assay for the Day 11 plates, the plates were subjected to centrifugation at 1100 rpm for five minutes on Day 7 and the supernatant was removed by aspiration. The cells were resuspended in 90 μl aliquot of the appropriate growth medium lacking the compound followed by addition of 10 μl of a 10× stock of the same compound at the same concentration. The viability of the Day 11 cells was measured using the CTG assay kit described above in accordance with the manufacturer's instructions. The IC50 values for each compound at each predetermined time point were calculated using Graph pad PRISM software and the results are shown in Table 15. A=≤250 nM; B=<250 nM-≤500 nM; and C=>500 nM.

[2] = molecular target: purified human, His-tagged PRC2 complex (Homo sapiens (Human), UniProt O75530); assay: Hot Spot HMT assay: inhibition of PRC2 enzymatic activity (transfer of tritiated methyl from SAM to core histone H3); format: biochemical; conditions: 10 nM PRC2 complex, 0.05 mg/ml core histone H3, 1 uM 3H-SAM, 1 hr at 30° C.; read-out: IC50, Inhibition of PRC2-mediated Enzymatic Activity
Source text: The assay uses purified human, His-tagged PRC2 complex, including N-terminal His-tagged EZH2 enzyme. N-terminal Flag-tagged embryonic ectoderm development protein (EED), N-terminal His-tagged suppressor of zeste 12 (SUZ12), N-terminal His-tagged AEBP2, and N-terminal His-tagged RbAp48. In this assay, the transfer of the tritiated methyl group from radiolabeled S-adenosyl methionine (SAM) to purified core histone protein by EZH2 is quantitated after filtration to determine the activity of the core PRC2 complex in the presence and absence of compound.
The initial starting concentration for the serial dilutions of each compound was 1.0 μM. […] SAH (S-(5-adenosyl)-L-homocysteine) was used as a positive control for assay validation.
An aliquot of each serial dilution of test compound was added to deep 384 well plate using Acoustic Technology instrument (Echo 550, LabCyte) containing reaction buffer (50 mM Tris-HCl (pH 8)), 0.01% Brij35, 1 mM EDTA, 1 mM DTT, 1 mM PMSF and 1% DMSO), 10 nM purified PRC2 complex and 0.05 mg/ml core histone H3 in a 5 μl volume. The reaction was mixed gently and then pre-incubated for 20 min at 30° C. The enzymatic reaction was initiated by adding 1 uM S-Adenosyl-L-[methyl-^3H]methionine and incubated for 1 hr at 30° C. After 1 hr, the reaction product was detected using a filter binding method and the amount of tritiated H3 core histone was quantitated using a scintillation counter. […] Key: A=<100 nM; B=>100 nM-<500 nM; and C=>500 nM.

[3] = tested on: histone H3 Lys27 trimethylation in Pfeiffer cells expressing mutant EZH2 (A677G); assay: Tri-Methyl Histone H3 (Lys 27) sandwich ELISA in Pfeiffer cells; format: cell-based; conditions: Homo sapiens, 96 hours incubation, read-out: IC50 (nM), Inhibition of EZH2-mediated Histone H3 Trimethylation
Source text: The Pfeiffer cell line was established from a […] from a patient having metastatic diffuse large B-cell lymphoma (DLBCL). This cell line expresses a mutant form of the EZH2 enzyme (A677G) that results in enhanced EZH2 activity leading to increased methylation of histone H3 Lys27. Increased trimethylation of histone H3 Lys27 is believed to be implicated in tumorgenesis and poor clinical prognosis in lymphomas (McCabe et al., (2012) Nature 492:108-112).
Inhibition of PRC2-mediated histone H3 methylation by compounds of Formula (I) was measured by ELISA using a Tri-Methyl Histone H3 (Lys 27) Sandwich ELISA Kit (Cell Signaling Tech #7866C) in accordance with the manufacturer's instructions. Briefly, Pfeiffer cells were cultured in RPMI medium supplemented with 10% fetal bovine serum and 1% penicillin and 1% streptoncin in 96 well culture plates at 37° C. to a density of 8000 cells/90 μl/well and the cells were harvested. A series of 3-fold serial dilutions of each test compound of Formula (I) were prepared in RPMI medium and added to the cells at final concentrations ranging from 1 μM to 0.15 nM. The plates were incubated at 37° C. for 96 hours.
After incubation, the cells were pelleted by centrifugation in a pre-cooled 4° C. rotor at 1,100 rpm for 10 min and the supernatant was removed by aspiration. The cell pellet was resuspended in 55 μl of Lysis Buffer (0.4M HCl) and incubated on ice with periodic shaking for 30 minutes. The lysed cells were subjected to centrifugation at 4,200 rpm for 10 min at 4° C. and the supernatant containing acid-soluble proteins was collected and the remainder discarded. The acid-soluble proteins were brought to a neutral pH by the addition of 20 μl of Neutralization Buffer (1 M Sodium phosphate, dibasic (pH 12.5), 2.5 mM DTT and 1 mM PMSF) and the neutralized lysates were analyzed by ELISA.
A 65 μl aliquot of each cell lysate was added to a well of a microwell strip, the microwells were sealed using tape and incubated either at 37° C. for two hours or at 4° C. overnight. After incubation, the tape was removed at the microwells were washed four times using 200 μl of 1× Wash Buffer. To each washed microwell, a 100 μl aliquot of an anti-trimethyl histone H3 Lys27 Detection Antibody solution was added and the microwells were incubated at 37° C. for one hour. The Detection Antibody solution was removed by aspiration and the wells were washed four times each using 200 μl of 1× Wash Buffer.
A 100 μl aliquot of an HRP-linked secondary antibody was added to each well, the wells were sealed with tape and incubated at 37° C. for 30 min. The HRP-linked secondary antibody solution was removed by aspiration and the wells were washed four times using 200 μl of 1× Wash Buffer. A 100 μl aliquot of a TMB substrate was added to each well, the wells were sealed with tape and incubated at 37° C. for 10 min or 25° C. for 30 min. The reaction was stopped by the addition of 100 μl aliquot of a STOP solution and the plate was shaken briefly. The degree of histone H3 trimethylation was determined using a spectrophotometric readout by measuring the absorbance at 450 nm and then calculating the amount of trimethylated histone H3. A=≤100 nM; B=>100 nM-≤500 nM; C=>500 nM and N.D.=not determined.

purified human, His-tagged PRC2 complex, sequence (Q15910 whole entry): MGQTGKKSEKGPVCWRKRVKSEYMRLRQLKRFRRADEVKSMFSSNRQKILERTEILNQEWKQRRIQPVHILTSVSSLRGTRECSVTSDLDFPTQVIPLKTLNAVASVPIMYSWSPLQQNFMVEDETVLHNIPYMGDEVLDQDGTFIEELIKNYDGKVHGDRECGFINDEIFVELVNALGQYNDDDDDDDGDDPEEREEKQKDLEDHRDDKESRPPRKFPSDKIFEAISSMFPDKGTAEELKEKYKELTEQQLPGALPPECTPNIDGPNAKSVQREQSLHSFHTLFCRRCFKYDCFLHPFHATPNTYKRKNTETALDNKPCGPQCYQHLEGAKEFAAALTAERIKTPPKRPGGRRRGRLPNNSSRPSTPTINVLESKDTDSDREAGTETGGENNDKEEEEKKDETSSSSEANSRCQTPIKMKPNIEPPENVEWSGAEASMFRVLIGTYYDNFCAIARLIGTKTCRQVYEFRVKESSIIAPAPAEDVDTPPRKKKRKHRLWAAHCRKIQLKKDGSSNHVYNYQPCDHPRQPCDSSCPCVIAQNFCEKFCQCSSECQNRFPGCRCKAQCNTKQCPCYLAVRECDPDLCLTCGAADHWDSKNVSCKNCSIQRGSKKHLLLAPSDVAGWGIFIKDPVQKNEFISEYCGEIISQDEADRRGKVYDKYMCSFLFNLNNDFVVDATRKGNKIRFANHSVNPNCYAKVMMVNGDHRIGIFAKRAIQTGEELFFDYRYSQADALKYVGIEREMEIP
purified human, His-tagged PRC2 complex, sequence (O75530 whole entry): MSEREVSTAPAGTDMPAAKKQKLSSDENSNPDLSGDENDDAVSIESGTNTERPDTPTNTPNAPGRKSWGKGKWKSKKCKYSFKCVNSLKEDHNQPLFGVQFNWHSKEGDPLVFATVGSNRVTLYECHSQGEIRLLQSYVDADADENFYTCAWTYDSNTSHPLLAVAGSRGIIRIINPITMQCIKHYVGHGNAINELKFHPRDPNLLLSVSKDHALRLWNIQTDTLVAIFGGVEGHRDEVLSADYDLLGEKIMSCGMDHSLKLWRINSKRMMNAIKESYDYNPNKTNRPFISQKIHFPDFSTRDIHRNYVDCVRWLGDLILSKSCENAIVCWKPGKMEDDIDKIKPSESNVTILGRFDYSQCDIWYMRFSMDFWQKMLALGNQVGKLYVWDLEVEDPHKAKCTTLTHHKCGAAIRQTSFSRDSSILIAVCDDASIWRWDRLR
purified human, His-tagged PRC2 complex, sequence (Q15022 whole entry partner): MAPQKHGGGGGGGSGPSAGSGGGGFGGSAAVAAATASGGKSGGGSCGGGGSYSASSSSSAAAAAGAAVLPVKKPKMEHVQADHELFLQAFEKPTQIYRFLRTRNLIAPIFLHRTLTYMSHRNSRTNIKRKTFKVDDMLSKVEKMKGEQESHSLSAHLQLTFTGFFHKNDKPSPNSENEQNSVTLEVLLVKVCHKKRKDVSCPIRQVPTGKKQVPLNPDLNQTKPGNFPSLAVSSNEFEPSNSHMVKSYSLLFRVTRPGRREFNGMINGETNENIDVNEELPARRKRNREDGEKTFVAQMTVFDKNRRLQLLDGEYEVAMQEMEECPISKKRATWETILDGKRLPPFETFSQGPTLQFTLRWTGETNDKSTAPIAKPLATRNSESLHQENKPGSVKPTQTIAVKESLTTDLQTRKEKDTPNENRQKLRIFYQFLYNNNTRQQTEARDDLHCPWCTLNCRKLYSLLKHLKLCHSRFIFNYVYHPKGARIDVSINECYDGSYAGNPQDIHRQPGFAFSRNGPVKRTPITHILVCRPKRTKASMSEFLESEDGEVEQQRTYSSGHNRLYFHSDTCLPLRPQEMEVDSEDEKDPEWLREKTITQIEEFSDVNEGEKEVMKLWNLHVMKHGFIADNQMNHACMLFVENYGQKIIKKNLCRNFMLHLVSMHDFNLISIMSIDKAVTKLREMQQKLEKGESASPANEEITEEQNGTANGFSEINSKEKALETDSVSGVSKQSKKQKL
purified human, His-tagged PRC2 complex, sequence (Q6ZN18 whole entry partner): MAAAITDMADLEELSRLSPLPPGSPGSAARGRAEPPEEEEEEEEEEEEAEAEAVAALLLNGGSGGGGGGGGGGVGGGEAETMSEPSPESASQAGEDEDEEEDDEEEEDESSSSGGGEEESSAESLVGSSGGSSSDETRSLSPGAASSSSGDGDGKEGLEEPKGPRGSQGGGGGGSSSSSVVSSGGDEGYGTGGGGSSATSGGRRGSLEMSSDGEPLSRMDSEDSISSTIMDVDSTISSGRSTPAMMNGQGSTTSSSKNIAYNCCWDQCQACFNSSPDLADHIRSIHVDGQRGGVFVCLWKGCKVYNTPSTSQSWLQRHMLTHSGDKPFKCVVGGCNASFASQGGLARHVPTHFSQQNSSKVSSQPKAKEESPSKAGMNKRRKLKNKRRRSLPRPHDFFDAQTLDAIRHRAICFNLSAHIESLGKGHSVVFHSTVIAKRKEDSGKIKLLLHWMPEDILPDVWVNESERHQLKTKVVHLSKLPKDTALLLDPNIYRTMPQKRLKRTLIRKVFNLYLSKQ
purified human, His-tagged PRC2 complex, sequence (Q09028 whole entry partner): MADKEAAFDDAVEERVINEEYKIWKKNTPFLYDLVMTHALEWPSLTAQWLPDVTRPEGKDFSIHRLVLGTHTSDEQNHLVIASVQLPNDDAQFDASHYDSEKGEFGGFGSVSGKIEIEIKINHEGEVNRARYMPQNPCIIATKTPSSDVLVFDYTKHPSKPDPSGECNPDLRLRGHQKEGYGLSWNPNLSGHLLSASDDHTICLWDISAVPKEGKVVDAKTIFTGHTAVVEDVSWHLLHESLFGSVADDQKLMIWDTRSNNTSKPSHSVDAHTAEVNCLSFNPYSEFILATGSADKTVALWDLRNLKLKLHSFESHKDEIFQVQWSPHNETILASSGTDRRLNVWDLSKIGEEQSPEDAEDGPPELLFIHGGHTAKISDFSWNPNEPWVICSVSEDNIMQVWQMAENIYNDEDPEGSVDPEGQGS

Row | IC50 [1] [nM] | IC50 [3] [nM] | Structure (SMILES) | IC50 ([1]; Homo sapiens, 96 h) [nM] | IC50 [2] [nM]
1 | 250 to 500 | – | CN(C)C(=O)c1cc(-c2cnc(NCc3c(F)ccc4c3CCO4)n3cc(C#N)nc23)n(C)n1 [Example 170, 5-(2-cyano-5-(((5-fluoro-2,3-dihydrobenzofuran-4-yl)methyl)amino)imidazo[1,2-c]pyrimidin-8-yl)-N,N,1-trimethyl-1H-pyrazole-3-carboxamide] | – | –
2 | – | – | Cc1cc(-c2cnc(NCc3c(F)ccc4occc34)n3cc(C#N)nc23)n(C)n1 [Example 28] | 250 to 500 | < 100
3 | – | 100 to 500 | Cc1cc(-c2cnc(NCc3c(F)ccc4c3CCO4)n3cc(C#N)nc23)ccn1 [Example 178, 5-(((5-fluoro-2,3-dihydrobenzofuran-4-yl)methyl)amino)-8-(2-methylpyridin-4-yl)imidazo[1,2-c]pyrimidine-2-carbonitrile] | ≤ 250 | 100 to 500
4 | – | 100 to 500 | [2H]C([2H])(Nc1ncc(-c2ccc(CN(C)C)cc2)c2nc(C#N)cn12)c1c(F)ccc2c1CCO2 [Example 165, 8-(4-((dimethylamino)methyl)phenyl)-5-(((5-fluoro-2,3-dihydrobenzofuran-4-yl)methyl-d2)amino)imidazo[1,2-c]pyrimidine-2-carbonitrile] | ≤ 250 | –
5 | ≤ 250 | – | Cc1nc(CN(C)C)ccc1-c1cnc(NCc2c(F)ccc3c2CCO3)n2cc(C#N)nc12 [Example 152] | – | –
6 | – | < 100 | Cn1nc(C(=O)O)cc1-c1cnc(NCc2c(F)ccc3c2CCO3)n2cc(C#N)nc12 [Example 157, 5-(2-cyano-5-(((5-fluoro-2,3-dihydrobenzofuran-4-yl)methyl)amino)imidazo[1,2-c]pyrimidin-8-yl)-1-methyl-1H-pyrazole-3-carboxylic acid] | ≤ 250 | –

Row | Structure (SMILES) | IC50 [1] [nM] | IC50 [3] [nM] | IC50 ([1]; Homo sapiens, 96 h) [nM] | IC50 [2] [nM]
7 | Cc1cc(-c2cnc(NCc3c(F)ccc4c3OCO4)n3cc(C#N)nc23)n(C)n1 [Example 228, 8-(1,3-dimethyl-1H-pyrazol-5-yl)-5-(((5-fluorobenzo[d][1,3]dioxol-4-yl)methyl)amino)imidazo[1,2-c]pyrimidine-2-carbonitrile] | – | 100 to 500 | ≤ 250 | 100 to 500
8 | N#Cc1cn2c(NCc3c(F)ccc4c3CCO4)ncc(-c3cnc(C4CC4)nc3)c2n1 [Example 70] | – | < 100 | ≤ 250 | < 100
